Values of other authors as cited in patent US20110110858A1, “Gold nanoparticle imaging agents and uses thereof” (priority 2009, published 2011).

Conditions: 25° C.

Q: For `NCCCC[C@H](N[C@@H](CCc1ccccc1)C(=O)O)C(=O)N1CCC[C@H]1C(=O)O` [lisinopril], which “pKa of the central CO2H” value is on record?
A: 2.5

Q: And the “pKa of the lysyl amino group” value?
A: 10.1

Q: What about the “pKa of the prolyl CO2H” value of the same molecule?
A: 4.0

Q: And the “pKa of the secondary amine group” value?
A: 6.7
